Results taken from patent US20260167637A1, “NLRP3 INFLAMMASOME INHIBITOR AND USE THEREOF” (TransThera Sciences (Nanjing), Inc., priority 2022, published 2026).

Key:
[1] = Pharmacokinetic study in mice; format: in vivo, female C57BL/6J mice; details: female, C57BL/6J, mouse, plasma; for clearance: read-out: Cl—obs iv (clearance rate) (converted); for Vd: read-out: Vss iv (distribution volume); for bioavailability: po 10 mg/kg vs iv 5 mg/kg, read-out: F% (absolute bioavailability); for Tmax: median, read-out: Tmax po (time to peak plasma concentration); for Cmax: read-out: Cmax po (peak concentration)
Procedure: (§1) The compounds were prepared into solutions using a mixed vehicle composed of 5% dimethyl sulfoxide, 20% (30% solutol), and 75% normal saline. The compound solutions were intragastrically administered to female C57BL/6J mice at a dose of 10 mg/kg, and the blood collection time points were: 15 min, 30 min, 1 h, 2 h, 4 h, 6 h, 8 h, and 24 h.
as §1, with “intravenously injected into” for “intragastrically administered to”, “5” for “10”, “were: 5 min,” for “were:”
The samples to be tested were taken out from a −80° C. freezer, naturally thawed at room temperature, and then vortexed for 5 min.
Plasma samples of 10 μL from different individuals were accurately pipetted into 1.5 mL centrifuge tubes.
900 μL of a 100 ng/mL internal standard working solution (a solution of tolbutamide in acetonitrile) was added, and the mixture was well mixed.
After 5 min of vortexing, centrifugation was performed at 12,000 rpm for 5 min.
50 μL of the supernatant was accurately pipetted into a 96-well plate to which water was added in advance at 150 μL/well.
After 5 min of vortexing, LC-MS/MS analysis was performed.
The results of the test substance concentrations were output by Analyst 1.6.3 of AB Sciex.
Parameters such as mean, standard deviation, and coefficient of variation (excluding those output directly by Analyst 1.6.3) were calculated using Microsoft Excel. PK parameters were calculated using WinNonlin Phenoix 8.2 software NCA (Tmax was a median).

[2] = Stability in rat liver microsomes; format: in vitro ADME; details: rat liver microsomes 0.5 mg protein/mL, 1 μM test substance, β-NADPH 1 mM, 37° C.; for half-life at 1 μM: read-out: Rat t1/2
Procedure: (§2) Experimental Example 2: Evaluation of Stability of Compounds Disclosed Herein in Liver Microsomes
(§3) Composition of experimental incubation system:
(§4) An appropriate amount of the compound was precisely weighed out and dissolved in DMSO to prepare a 10.0 mM stock solution. The 10.0 mM stock solution was diluted with DMSO to 1.0 mM, and then diluted with phosphate buffer (containing 3 mM MgCl2) to prepare a 10 μM test substance working solution for later use (DMSO content in the reaction system: 0.1%).
(§5) An appropriate amount of β-NADPH was precisely weighed out and then prepared into a 5 mM β-NADPH working solution using phosphate buffer (containing 3 mM MgCl2) for later use.
(§6) (1) The liver microsomes (20 mg protein/mL) were taken out from a −80° C. freezer and pre-incubated on a 37° C. water bath thermostatic oscillator for 3 min to thaw for later use.
(§7) (2) A mixed solution of the incubation system (without β-NADPH) was prepared according to “composition of experimental incubation system” described above, and pre-incubated on a 37° C. water bath thermostatic oscillator for 2 min.
(§8) (3) Control group (without β-NADPH): 10 μL of phosphate buffer (containing 3 mM MgCl2) and 40 μL of the mixed solution of the incubation system in step (2) were taken and mixed, and the mixture was vortexed for 30 s and mixed well, resulting in a total reaction volume of 50 μL; the sample was duplicated. The mixture was placed on a 37° C. water bath thermostatic oscillator for incubation, and timing was started, with termination time points set at 0 min and 60 min.
(§9) (4) Sample group: 10 μL of the β-NADPH solution (5 mM) and 40 μL of the mixed solution in step (2) were taken and mixed, resulting in a total reaction volume of 50 μL; the mixture was vortexed for 30 s and mixed well; the sample was duplicated. The mixture was placed on a 37° C. water bath thermostatic oscillator for incubation, and timing was started, with termination time points set at 0 min, 5 min, 10 min, 20 min, 30 min, and 60 min.
(§10) (5) The mixture was vortexed for 5 min and then centrifuged at 4000 rpm for 10 min.
(§11) (6) 50 μL of the supernatant was taken and added to 150 μL of water, and the resulting mixture was vortexed and mixed well before LC/MS/MS analysis.
(§12) The half-life (t1/2) and clearance rate (CL) were calculated using the following first-order kinetic formula
(§13) Notes: k denotes the slope of the logarithm of the remaining amount of a compound vs. time, and Vd denotes apparent volume of distribution.

[3] = Stability in canine liver microsomes; format: in vitro ADME; details: canine liver microsomes 0.5 mg protein/mL, 1 μM test substance, β-NADPH 1 mM, 37° C.; for microsomal CLint at 1 μM / half-life at 1 μM: dog; for half-life at 1 μM: read-out: Canine t1/2
Procedure: as §2, §3, §4, §5, §6, §7, §8, §9, §10, §11, §12, §13

THP-1 cell NLRP3 = biological target: T1, THP-1 cell NLRP3 (Homo sapiens, UniProt Q96P20); test: Inhibitory activity against cell NLRP3 inflammasomes in THP-1 cells (LPS + nigericin, ELISA of supernatant); format: cell-based; details: PMA-differentiated THP-1 cells, LPS 500 ng/mL 3 h, compound 1 h, nigericin 30 min; human IL-10 (so in the source) in supernatant by ELISA
T1 construct: endogenous in cells; host or cells: THP-1 cells, PMA-differentiated, stimulated with LPS and nigericin
Procedure: Experimental Example 1: Assay for Inhibitory Activity of Compounds Disclosed Herein Against Cell NLRP3 Inflammasomes
Test substances: The compounds of the present disclosure, prepared according to the methods described in the examples.
THP-1 is an immortalized human […] cell line.
Instrument: microplate reader (made by PE)
Assay Method: 1. THP-1 cells were cultured in 1640 complete medium (500 mL of 1640+56 mL of FBS+560 μL of 1000×P/S+2 μL of mercaptoethanol), and cells at passages 3-20 were used.
2. Culture plate coating: 100 μL of polylysine solution was added to a 96-well cell culture plate. After 30 min of incubation at 37° C., the solution was discarded, and the plate was washed with PBS twice for later use.
3. Induction of THP-1 differentiation: THP-1 cells were resuspended in an appropriate amount of complete medium containing 10 ng/mL PMA to form a cell suspension with a density of 5×10^5 cells/mL. The suspension was added to the 96-well plate at 100 μL/well, and the plate was incubated overnight in a 37° C. carbon dioxide cell incubator for 16 h.
4. Stimulation of THP-1: • a. Serum-free THP-1 culture medium containing LPS was added, with the final concentration being 500 ng/mL. The plate was incubated in a 37° C. carbon dioxide cell incubator for 3 h. • b. Mother liquors of the compounds to be tested with gradient concentrations were prepared with DMSO, added to the cells, and well mixed. Dilution was finally performed in a 1:1000 ratio. The plate was incubated in a 37° C. carbon dioxide cell incubator for 1 h. • c. Nigericin was added to each well, with the final concentration being […]. The plate was incubated in a carbon dioxide cell incubator at 37° C. for 30 min. • d. The medium in the wells was transferred to a new culture plate, and after 5 min of centrifugation at 3000 rpm, the supernatant was transferred to a new 96-well plate. • e. The content of human […] in the collected cell culture supernatant samples was determined with a commercial ELISA kit by following the instructions.

[4] = Pharmacokinetic study in male SD rats; format: in vivo; details: rat, plasma
Procedure: Experimental Example 4: Pharmacokinetic Study of Compounds in Male SD Rats
as §1, with “administered to male SD rats at a” for “administered to female C57BL/6J mice at a”, “dose of 5.0 mg/kg, and” for “dose of 10 mg/kg, and”, “8 h, 10 h, and 24” for “8 h, and 24”
as §1, with “intravenously injected into male SD rats” for “intragastrically administered to female C57BL/6J mice”, “1.0” for “10”, “were: 5 min,” for “were:”, “4h,” for “4 h,”, “8h, 10” for “8”
Intravenous catheterization was performed on the animals the day before the administration. After the administration, blood samples of about 300 μL were collected from the jugular vein and placed into anticoagulation tubes containing EDTA-K2. The blood samples were centrifuged at 5000 rpm at 4° C. for 10 min to give plasma samples. The plasma samples were prepared within 30 min after blood collection. The plasma samples were stored in a −80° C. freezer before testing.

[5] = iv 5 mg/kg, read-out: AUClast iv (0-24 h)
[6] = iv 5 mg/kg, read-out: tz1/2 iv (terminal half-life) (converted)
[7] = po 10 mg/kg, read-out: AUClast po (0-24 h)
[8] = po 10 mg/kg, read-out: tz1/2 po (terminal half-life) (converted)

T1 sequence (Q96P20 whole entry): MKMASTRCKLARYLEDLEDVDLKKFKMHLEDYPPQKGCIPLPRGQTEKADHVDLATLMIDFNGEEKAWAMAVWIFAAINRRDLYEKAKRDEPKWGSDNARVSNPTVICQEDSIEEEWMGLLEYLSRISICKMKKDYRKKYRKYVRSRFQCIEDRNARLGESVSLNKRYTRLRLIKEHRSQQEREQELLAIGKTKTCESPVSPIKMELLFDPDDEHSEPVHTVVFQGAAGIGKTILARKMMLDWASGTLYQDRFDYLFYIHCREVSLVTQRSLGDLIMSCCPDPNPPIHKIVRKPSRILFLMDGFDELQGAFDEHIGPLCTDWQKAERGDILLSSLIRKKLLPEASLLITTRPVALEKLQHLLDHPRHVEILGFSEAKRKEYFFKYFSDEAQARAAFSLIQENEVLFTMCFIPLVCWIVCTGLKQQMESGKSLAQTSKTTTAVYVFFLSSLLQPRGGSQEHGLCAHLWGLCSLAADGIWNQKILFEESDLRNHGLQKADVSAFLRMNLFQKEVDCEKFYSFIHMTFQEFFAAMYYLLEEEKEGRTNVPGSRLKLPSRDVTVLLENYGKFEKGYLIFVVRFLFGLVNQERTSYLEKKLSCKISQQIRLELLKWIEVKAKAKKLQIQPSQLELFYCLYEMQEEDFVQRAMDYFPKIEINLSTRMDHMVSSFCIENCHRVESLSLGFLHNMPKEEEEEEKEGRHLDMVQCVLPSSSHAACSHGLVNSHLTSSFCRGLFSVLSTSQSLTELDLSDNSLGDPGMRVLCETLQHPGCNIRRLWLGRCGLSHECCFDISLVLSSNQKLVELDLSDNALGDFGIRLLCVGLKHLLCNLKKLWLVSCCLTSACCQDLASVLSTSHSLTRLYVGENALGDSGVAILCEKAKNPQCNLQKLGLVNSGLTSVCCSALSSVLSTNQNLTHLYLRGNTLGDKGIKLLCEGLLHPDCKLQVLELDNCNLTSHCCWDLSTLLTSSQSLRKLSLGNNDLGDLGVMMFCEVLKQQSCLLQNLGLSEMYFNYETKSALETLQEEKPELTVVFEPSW

Row | Compound | AUC(0-t) [1, 5] [ng·h/mL] | clearance ([1]; iv 5 mg/kg) [mL/min/kg] | Vd ([1]; iv 5 mg/kg) [L/kg] | half-life [1, 6] [h] | bioavailability [1] [%] | Tmax ([1]; po 10 mg/kg) [h] | AUC(0-t) [1, 7] [ng·h/mL] | Cmax ([1]; po 10 mg/kg) [ng/mL] | half-life [1, 8] [h] | microsomal CLint at 1 μM [2] [µL/min/mg] | half-life at 1 μM [2] [h] | IC50 (THP-1 cell NLRP3) [nM] | microsomal CLint at 1 μM [3] [µL/min/mg] | half-life at 1 μM [3] [h] | further results
1 | C#Cc1ccc(-c2nnc(N[C@@H]3CCCN(CCO)C3)c(=O)n2C)c(O)c1 [Compound 42, (R)-3-(4-ethynyl-2-hydroxyphenyl)-6-((1-(2-hydroxyethyl)piperidin-3-yl)amino)-4-methyl-1,2,4-triazin-5(4H)-one] | – | – | – | – | – | – | – | – | – | 4.2 | 5.5 | 4.6 | 1.2 | 19.2 | AUC(0-t) ([4]; iv 1 mg/kg, read-out: AUClast iv (0-24 h)): 2490 ng·h/mL; clearance ([4]; iv 1 mg/kg, read-out: Cl—obs iv (clearance rate) (converted)): 6.65 mL/min/kg; Vd ([4]; iv 1 mg/kg, read-out: Vss iv (distribution volume)): 0.694 L/kg; half-life ([4]; iv 1 mg/kg, read-out: tz1/2 iv (terminal half-life) (converted)): 1.55 h; bioavailability ([4]; po 5 mg/kg vs iv 1 mg/kg, read-out: F% (absolute bioavailability)): 77.8%; Tmax ([4]; po 5 mg/kg, median, read-out: Tmax po (time to peak plasma concentration)): 1 h; AUC(0-t) ([4]; po 5 mg/kg, read-out: AUClast po (0-24 h)): 9720 ng·h/mL; Cmax ([4]; po 5 mg/kg, read-out: Cmax po (peak concentration)): 2490 ng/mL; half-life ([4]; po 5 mg/kg, read-out: tz1/2 po (terminal half-life) (converted)): 3.99 h
2 | [2H]C([2H])([2H])N1CCC[C@@H](Nc2cc(C)c(-c3ccc(C#C)cc3O)nn2)C1 [Compound 84, (R)-5-ethynyl-2-(4-methyl-6-((1-(methyl-d3)piperidin-3-yl)amino)pyridazin-3-yl)phenol] | 5590 | 14.8 | 3.02 | 3.81 | 92.7 | 0.5 | 10400 | 1910 | 3.1 | 4 | 5.78 | 0.2 | 4 | 5.78 | –
3 | C#Cc1ccc(-c2nnc(N[C@@H]3CCCN(CCO)C3)nc2C2CC2)c(O)c1 [Compound 100, (R)-2-(5-cyclopropyl-3-((1-(2-hydroxyethyl)piperidin-3-yl)amino)-1,2,4-triazin-6-yl)-5-ethynylphenol] | 4460 | 18 | 2.41 | 1.65 | 68.4 | 0.25 | 6280 | 1720 | 3.63 | 8.4 | 2.75 | 2.4 | 2.8 | 8.25 | –

Now from value to compound, other results behind:

Row | AUC(0-t) [1, 5] [ng·h/mL] | clearance ([1]; iv 5 mg/kg) [mL/min/kg] | Vd ([1]; iv 5 mg/kg) [L/kg] | half-life [1, 6] [h] | bioavailability [1] [%] | Tmax ([1]; po 10 mg/kg) [h] | AUC(0-t) [1, 7] [ng·h/mL] | Cmax ([1]; po 10 mg/kg) [ng/mL] | half-life [1, 8] [h] | microsomal CLint at 1 μM [2] [µL/min/mg] | half-life at 1 μM [2] [h] | IC50 (THP-1 cell NLRP3) [nM] | microsomal CLint at 1 μM [3] [µL/min/mg] | half-life at 1 μM [3] [h] | Compound | further results
4 | 6830 | 11.8 | 2.39 | 9.55 | 77.7 | 0.25 | 10900 | 5520 | 3.99 | 6.2 | 3.73 | 5.2 | – | – | CC#Cc1ccc(-c2nnc(N[C@@H]3CCCN(C)C3)c(=O)n2C)c(O)c1 [Compound 27, (R)-3-(2-hydroxy-4-(prop-1-yn-1-yl)phenyl)-4-methyl-6-((1-methylpiperidin-3-yl)amino)-1,2,4-triazin-5(4H)-one] | Canine t1/2 [3]: →∞
5 | 15100 | 5.32 | 1.85 | 5.55 | 94.4 | 1 | 29100 | 3540 | 4.26 | 4.6 | 5.02 | 0.6 | 5.2 | 4.45 | [2H]C([2H])([2H])N1CCC[C@@H](Nc2cc(C3CC3)c(-c3ccc(C#C)cc3O)nn2)C1 [Compound 85, (R)-2-(4-cyclopropyl-6-((1-(methyl-d3)piperidin-3-yl)amino)pyridazin-3-yl)-5-ethynylphenol] | –
